Data as given in patent publication US6492381B1, “Tricyclic carbamate compounds useful for inhibition of G-protein function and for treatment of proliferative diseases” (Schering Corp., priority 1993, dated 2002).
Like-named read-outs stand apart in the source and are kept apart here.

Columns and labels:
[1] = biological target: T1, farnesyl protein transferase (FPT) (Rattus norvegicus, UniProt Q02293+Q04631); assay: In vitro enzyme assay: inhibition of farnesyl protein transferase; format: biochemical
T1 construct: were partially purified from rat brain by ammonium sulfate fractionation followed by Q-Sepharose; from tissue; host or cells: rat brain
Experimental: (§1) 1. In vitro enzyme assays: Inhibition of farnesyl protein transferase and geranylgeranyl protein transferase.
Human farnesyl protein transferase was also expressed in E. coli, using cDNA clones encoding both the α and β subunits. […] Two forms of val^12-Ha-Ras protein were prepared as substrates for these enzymes, differing in their carboxy terminal sequence. One form terminated in cysteine-valine-leucine-serine (Ras-CVLS) the other in cystein-valine-leucine-leucine (Ras-CVLL). Ras-CVLS is a substrate for the farnesyl protein transferase while Ras-CVLL is a substrate for geranylgeranyl protein transferase I. The cDNAs encoding these proteins were constructed so that the proteins contain an amino-terminal extension of 6 histidine residues. Both proteins were expressed in Escherichia coli and purified using metal chelate affinity chromatography. The radiolabelled isoprenyl pyrophosphate substrates, [^3H]farnesyl pyrophosphate and [^3H]geranylgeranyl pyrophosphate, were purchased from DuPont/New England Nuclear.
The reaction was allowed to proceed for 30 minutes at room temperature and then stopped with 0.5 ml of 4% sodium dodecyl sulfate (SDS) followed by 0.5 ml of cold 30% trichloracetic acid (TCA). Samples were allowed to sit on ice for 45 minutes and precipitated Ras protein was then collected on GF/C filter paper mats using a Brandel cell harvester. […] Percent inhibition was calculated relative to the DMSO vehicle control.

[2] = tested on: Ras-CVLS processing in COS monkey kidney cells; assay: Cell-based assay: Ras-CVLS processing in transfected COS cells (immunoblot); settings: Primates; inhibition of Ras-CVLS processing in Ras-transfected COS cells
Description: 2. Cell-Based Assay: Transient expression of val^12-Ha-Ras-CVLS and val^12-Ha-Ras-CVLL in COS monkey kidney cells: Effect of farnesyl protein transferase inhibitors on Ras processing and on disordered cell growth induced by transforming Ras.
COS monkey kidney cells were transfected by electroporation with the plasmid pSV-SPORT (Gibco/BRL) containing a cDNA insert encoding either Ras-CVLS or Ras-CVLL, leading to transient overexpression of a Ras substrate for either farnesyl protein transferase or geranylgeranyl protein transferase I, respectively (see above).
Following electroporation, cells were plated into 6-well tissue culture dishes containing 1.5 ml of Dulbecco's-modified Eagle's media (GIBCO, Inc.) supplemented with 10% fetal calf serum and the appropriate farnesyl protein transferase inhibitors. After 24 hours, media was removed and fresh media containing the appropriate drugs was re-added.
48 hours after electroporation cells were examined under the microscope to monitor disordered cell growth induced by transforming Ras. Cells expressing transforming Ras become more rounded and refractile and overgrow the monolayer, reminiscent of the transformed phenotype. Cells were then photographed, washed twice with 1 ml of cold phosphate-buffered saline (PBS) and removed from the dish by scraping with a rubber policeman into 1 ml of a buffer containing 25 mM Tris, pH 8.0; 1 mM ethylenediamine tetraacetic acid; 1 mM phenylmethylsulfonyl fluoride; 50 μM leupeptin; and 0.1 μM pepstatin. Cells were lysed by homogenization and cell debris was removed by centrifugation at 2000×g for 10 min.
Cellular protein was precipitated by addition of ice-cold trichloroacetic acid and redissolved in 100 μl of SDS-electrophoresis sample buffer. Samples (5-10 μl) were loaded onto 14% polyacrylamide minigels (Novex, Inc.) and electrophoresed until the tracking dye neared the bottom of the gel. Proteins resolved on the gels were electroblotted onto nitrocellulose membranes for immunodetection.
Membranes were blocked by incubation overnight at 4° C. in PBS containing 2.5% dried milk and 0.5% Tween-20 and then incubated with a Ras-specific monoclonal antibody, Y13-259 (Furth, M. E., et al., (1982), Monoclonal antibodies to the p21 products of the transforming gene of Harvey murine sarcome virus and of the cellular ras gene family, J. Virol. 43: 294-304), in PBS containing 1% fetal calf serum for one hour at room temperature. After washing, membranes were incubated for one hour at room temperature with a 1:5000 dilution of secondary antibody, rabbit anti-rat IgG conjugated to horseradish peroxidase, in PBS containing 1% fetal calf serum. The presence of processed and unprocessed Ras-CVLS or Ras-CVLL was detected using a calorimetric peroxidase reagent (4-chloro-1-naphthol) as described by the manufacturer (Bio-Rad).

[3] = tested on: T24-BAG4 human bladder carcinoma cells expressing an activated H-ras gene; assay: Cell Mat assay: inhibition of tumor cell growth; format: cell-based; settings: for IC50: tIC50
Experimental: (§2) Normal human HEPM fibroblasts were planted in 3.5 cm dishes at a density of 5×10^4 cells/dish in 2 ml growth medium, and incubated for 3-5 d to achieve confluence. Medium was aspirated from each dish and the indicator tumor cells, T24-BAG4 human bladder carcinoma cells expressing an activated H-ras gene, were planted on top of the fibroblast monolayer at a density of 2×10^3cells/dish in 2 ml growth medium, and allowed to attach overnight. Compound-induced colony inhibition was assayed by addition of serial dilutions of compound directly to the growth medium 24 h after tumor cell planting, and incubating cells for an additional 14 d to allow colony formation. Assays were terminated by rinsing monolayers twice with phosphate-buffered saline (PBS), fixing the monolayers with a 1% glutaraldehyde solution in PBS, then visualizing tumor cells by staining with X-Gal (Price, J., et al., Lineage analysis in the vertebrate nervous system by retrovirus-mediated gene transfer, Proc. Natl. Acad. Sci.84, 156-160(1987)). […] Both IC50 values were obtained by determining the density of tumor cells and mat cells by visual inspection and enumeration of cells per colony and the number of colonies under the microscope. The therapeutic index of the compound was quantitatively expressed as the ratio of mIC50/tIC50, with values greater than one indicative of tumor target specificity.

[4] = tested on: Normal human HEPM fibroblasts; assay: Cell Mat assay: inhibition of normal cell growth; format: cell-based; settings: Homo sapiens, Fibroblast, mIC50, normal cell monolayer
Experimental: as §2

[5] = biological target: T2, geranylgeranyl protein transferase (GGPT) I (Rattus norvegicus, UniProt P53610+Q04631); assay: In vitro enzyme assay: inhibition of geranylgeranyl protein transferase I; format: biochemical
T2 construct: were partially purified from rat brain by ammonium sulfate fractionation followed by Q-Sepharose; from tissue; host or cells: rat brain
Description: as §1
Both farnesyl protein transferase (FPT) and geranylgeranyl protein transferase (GGPT) I were partially purified from rat brain by ammonium sulfate fractionation followed by Q-Sepharose (Pharmacia, Inc.) anion exchange chromatography essentially as described by Yokoyama et al (Yokoyama, K., et al., (1991). A protein geranylgeranyltransferase from bovine brain: Implications for protein prenylation specificity, Proc. Natl. Acad. Sci USA 88: 5302-5306, the disclosure of which is incorporated herein by reference thereto). Human farnesyl protein transferase was also expressed in E. coli, using cDNA clones encoding both the α and β subunits. The methods used were similar to those published (Omer, C. et al., (1993), Characterization of recombinant human farnesyl protein transferase: Cloning, expression, farnesyl diphosphate binding, and functional homology with yeast prenyl-protein transferase, Biochemistry 32:5167-5176). Human farnesyl protein transferase was partially-purified from the soluble protein fraction of E. coli as described above. the tricyclic farnesyl protein transferase inhibitors disclosed herein inhibited both human and rat enzyme with similar potencies. Two forms of val^12-Ha-Ras protein were prepared as substrates for these enzymes, differing in their carboxy terminal sequence. One form terminated in cysteine-valine-leucine-serine (Ras-CVLS) the other in cystein-valine-leucine-leucine (Ras-CVLL). Ras-CVLS is a substrate for the farnesyl protein transferase while Ras-CVLL is a substrate for geranylgeranyl protein transferase I. The cDNAs encoding these proteins were constructed so that the proteins contain an amino-terminal extension of 6 histidine residues. Both proteins were expressed in Escherichia coli and purified using metal chelate affinity chromatography. The radiolabelled isoprenyl pyrophosphate substrates, [^3H]farnesyl pyrophosphate and [^3H]geranylgeranyl pyrophosphate, were purchased from DuPont/New England Nuclear.
The geranylgeranyl protein transferase I assay was essentially identical to the farnesyl protein transferase assay described above, with two exceptions: [^3H]geranylgeranylpyrophosphate replaced farnesyl pyrophosphate as the isoprenoid donor and Ras-CVLL was the protein acceptor. This is similar to the assay reported by Casey et al (Casey, P. J., et al., (1991), Enzymatic modification of proteins with a geranylgeranyl isoprenoid, Proc. Natl. Acad. Sci, USA 88: 8631-8635, the disclosure of which is incorporated herein by reference thereto).

[6] = Ras-CVLS farnesylation, partially purified rat brain FPT, read-out: FPT IC50

Structure (SMILES) | IC50 [1, 6] | IC50 [2] | IC50 ([3]; Homo sapiens) | IC50 [4] | further results
CCOC(=O)N1CCC(C2c3ccc(Cl)cc3C=Cc3ccc[n+]([O-])c32)CC1 (stereo not shown) |  |  |  |  | melting point: 78.6 to 89.4 °C
O=C(Oc1ccccc1)N1CCC(=C2c3ccc(Cl)cc3CCc3cccnc32)CC1 [Compound 565.00] | 0.84 µM | 6.7 µM |  |  | 
O=C(Oc1cccnc1)N1CCC(C2c3ccc(Cl)cc3C=Cc3cccnc32)CC1 (stereo not shown) |  |  |  |  | melting point: 102.1 to 103.9 °C
CCOC(=O)N1CCN(C2c3ccc(Cl)cc3CCc3cccnc32)CC1 (stereo not shown) [Compound 550.00, Ethyl 4-(8-chloro-6,11-dihydro-11H-benzo[5,6]cyclohepta[1,2-b]pyridin-11-yl)-1-piperazinecarboxylate] | 7.2 µM | > 20 µM | 18 µM | > 50 µM | IC50 [3]: 25 µM
CCOC(=O)N1CCC(C2c3ccc(Cl)cc3CCc3cccnc32)CC1 (stereo not shown) [Compound 618.00] | 1.22 µM | 20.5 µM | > 50 µM | > 50 µM | IC50 ([5]; Ras-CVLL as acceptor, read-out: GGPT IC 50): > 50 µM; selective antiproliferative activity against Ras-transformed cells versus normal cells [3]: little
O=C(Oc1cccnc1)N1CCN([C@@H]2c3ccc(Cl)cc3CCc3cccnc32)CC1 [Compound 600.00, (+) 3-pyridyl 4-(8-chloro-6,11-dihydro-5H-benzo[5,6]-cyclohepta[1,2-b]pyridin-11(R)-yl)-1-piperazine Carboxylate] |  | 6.9 µM | 12.5 µM | 50 µM | IC50 [1]: 1.28 µM
O=C(Oc1cccnc1)N1CCN([C@H]2c3ccc(Cl)cc3CCc3cccnc32)CC1 [Compound 608.00, (−) 3-pyridyl 4-(8-chloro-6,11-dihydro-5H-benzo[5,6]-cyclohepta[1,2-b]pyridin-11(S)-yl)-1-piperazinecarboxylate] |  | 3.9 µM | 37 µM | > 50 µM | IC50 [1]: 0.82 µM
O=C(Oc1ccccc1)N1CCN(C2c3ccc(Cl)cc3CCc3cccnc32)CC1 (stereo not shown) [Compound 612.00] |  | 4.8 µM | 50 µM | > 50 µM | IC50 [1]: 0.8 µM; selective antiproliferative activity against Ras-transformed cells versus normal cells [3]: little
O=C(Sc1ccccc1)N1CCC(=C2c3ccc(Cl)cc3CCc3cccnc32)CC1 [Compound 595.00, 4-(8-chloro-5,6-dihydro-11H-benzo[5,6]cyclohepta[1,2-b]-pyridin-11ylidene)-1-piperinecarbothioic Acid, S-phenyl Ester] |  | 5.1 µM | 18 µM | > 50 µM | melting point: 175 to 177 °C
CC(C)COC(=O)N1CCC(=C2c3ccc(Cl)cc3CCc3cccnc32)CC1 [Compound 575.00] | 4.4 µM | 9.9 µM | 37 µM | > 50 µM | 
CCSC(=O)N1CCC(=C2c3ccc(Cl)cc3CCc3cccnc32)CC1 [Compound 500.00] | 1.6 µM | 22 µM | 25 µM | 25 µM | selective for FPT inhibition (versus GGPT) ([5]; FPT versus GGPT): at least 31 fold; inhibition at 50 µM ([5]; at 50 μM): 7%; selective antiproliferative activity against Ras-transformed cells versus normal cells [3]: no
CCOC(=O)N1CCC(=C2c3ccc(Cl)cc3CCc3c(On4nnc5ccccc54)ccnc32)CC1 [Compound 654.00, Ethyl 4-[4-[(1H-benzotriazol-1-yl)oxy]-8-chloro-5,6-dihydro-11H-benzo[5,6]cyclohepta[1,2-b]pyridin-11-ylidene]-1-piperidine Carbamate] | 11.6 µM |  |  |  | melting point: 181.5 to 183.9 °C
CN1CCC(OC(=O)N2CCN(C3c4ccc(Cl)cc4CCc4cc(Br)cnc43)CC2)CC1 (stereo not shown) [Compound 803.00] | 0.31 µM | > 5 µM |  |  | 
O=C(Oc1cccnc1)N1CCN(C2c3ccc(Cl)cc3CCc3cccnc32)CC1 (stereo not shown) [Compound 610.00, 3-pyridyl 4-(8-chloro-6,11-dihydro-5H-benzo[5,6]-cyclohepta[1,2-b]pyridin-11-yl)-1-piperazinecarboxylate] |  | 3 µM |  |  | IC50 [1]: 0.5 µM
